Columns and labels:
Assay in all cases: Hoechst 33342 nuclear staining (Table 3)
Design in all cases: key: 0 relating to no activity; 1 relating to weak activity comprising less than 50% of the cells; score 2 relating to strong activity comprising more than 50% of the cells
A20 = assay type: cell-based, mouse
Summary of the method: (§1)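 Adherent cells (3-5×10^3, pre-spread 24 h) or suspension cells (8-10×10^3) treated with compounds at 10, 3, 1 and 0.3 µM for 24 or 48 h, then Hoechst 33342 stained for 30 min. Apoptotic nuclear morphology scored by fluorescence microscopy: 0 none, 1 weak (<50% cells), 2 strong (>50% cells).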

Jurkat = assay type: cell-based, human
Summary of the method: as §1

K562 = assay type: cell-based, human
Summary of the method: as §1

HBL 100 = assay type: cell-based, human
Summary of the method: as §1

HT 1080 = assay type: cell-based, human
Summary of the method: as §1

HeLa = assay type: cell-based, human
Summary of the method: as §1

KB = assay type: cell-based, human
Summary of the method: as §1

Ramos = assay type: cell-based, human
Summary of the method: as §1

Structure (SMILES): COc1cc2c(cc1OC)-c1c(Br)c3nc4ccccc4nc3n1C(C)C2 (stereo not drawn) [compound 10]
- Hoechst 33342 nuclear staining (A20; A20, 24h, conc 0.3 (µM)): 0
- Hoechst 33342 nuclear staining (A20; A20, 24h, conc 1 (µM)): 0
- Hoechst 33342 nuclear staining (A20; A20, 24h, conc 3 (µM)): 0
- Hoechst 33342 nuclear staining (A20; A20, 24h, conc 10 (µM)): 2 (score 2 relating to strong activity comprising more than 50% of the cells)
- Hoechst 33342 nuclear staining (A20; A20, 48h, conc 0.3 (µM)): 0
- Hoechst 33342 nuclear staining (A20; A20, 48h, conc 1 (µM)): 0
- Hoechst 33342 nuclear staining (A20; A20, 48h, conc 3 (µM)): 2 (score 2 relating to strong activity comprising more than 50% of the cells)
- Hoechst 33342 nuclear staining (Jurkat; 24h, conc 0.3 (µM)): 1 (1 relating to weak activity comprising less than 50% of the cells)
- Hoechst 33342 nuclear staining (Jurkat; 24h, conc 1 (µM)): 2 (score 2 relating to strong activity comprising more than 50% of the cells)
- Hoechst 33342 nuclear staining (Jurkat; 24h, conc 3 (µM)): 2 (score 2 relating to strong activity comprising more than 50% of the cells)
- Hoechst 33342 nuclear staining (Jurkat; 24h, conc 10 (µM)): 2 (score 2 relating to strong activity comprising more than 50% of the cells)
- Hoechst 33342 nuclear staining (Jurkat; 48h, conc 0.3 (µM)): 1 (1 relating to weak activity comprising less than 50% of the cells)
- Hoechst 33342 nuclear staining (Jurkat; 48h, conc 1 (µM)): 2 (score 2 relating to strong activity comprising more than 50% of the cells)
- Hoechst 33342 nuclear staining (Jurkat; 48h, conc 3 (µM)): 2 (score 2 relating to strong activity comprising more than 50% of the cells)
- Hoechst 33342 nuclear staining (Jurkat; 48h, conc 10 (µM)): 2 (score 2 relating to strong activity comprising more than 50% of the cells)
- Hoechst 33342 nuclear staining (K562; K562, 24h, conc 0.3 (µM)): 0
- Hoechst 33342 nuclear staining (K562; K562, 24h, conc 1 (µM)): 0
- Hoechst 33342 nuclear staining (K562; K562, 24h, conc 3 (µM)): 2 (score 2 relating to strong activity comprising more than 50% of the cells)
- Hoechst 33342 nuclear staining (K562; K562, 24h, conc 10 (µM)): 2 (score 2 relating to strong activity comprising more than 50% of the cells)
- Hoechst 33342 nuclear staining (K562; K562, 48h, conc 0.3 (µM)): 0
- Hoechst 33342 nuclear staining (K562; K562, 48h, conc 1 (µM)): 2 (score 2 relating to strong activity comprising more than 50% of the cells)
- Hoechst 33342 nuclear staining (K562; K562, 48h, conc 3 (µM)): 2 (score 2 relating to strong activity comprising more than 50% of the cells)
- Hoechst 33342 nuclear staining (K562; K562, 48h, conc 10 (µM)): 2 (score 2 relating to strong activity comprising more than 50% of the cells)
- Hoechst 33342 nuclear staining (fraction of apoptotic nuclei), score (HBL 100; HBL 100, 24h, 0.3 µM): 1 (1 relating to weak activity comprising less than 50% of the cells)
- Hoechst 33342 nuclear staining (fraction of apoptotic nuclei), score (HBL 100; HBL 100, 24h, 1 µM): 2 (score 2 relating to strong activity comprising more than 50% of the cells)
- Hoechst 33342 nuclear staining (fraction of apoptotic nuclei), score (HBL 100; HBL 100, 24h, 3 µM): 2 (score 2 relating to strong activity comprising more than 50% of the cells)
- Hoechst 33342 nuclear staining (fraction of apoptotic nuclei), score (HBL 100; HBL 100, 24h, 10 µM): 2 (score 2 relating to strong activity comprising more than 50% of the cells)
- Hoechst 33342 nuclear staining (fraction of apoptotic nuclei), score (HBL 100; HBL 100, 48h, 0.3 µM): 2 (score 2 relating to strong activity comprising more than 50% of the cells)
- Hoechst 33342 nuclear staining (fraction of apoptotic nuclei), score (HBL 100; HBL 100, 48h, 1 µM): 2 (score 2 relating to strong activity comprising more than 50% of the cells)
- Hoechst 33342 nuclear staining (fraction of apoptotic nuclei), score (HBL 100; HBL 100, 48h, 3 µM): 2 (score 2 relating to strong activity comprising more than 50% of the cells)
- Hoechst 33342 nuclear staining (fraction of apoptotic nuclei), score (HBL 100; HBL 100, 48h, 10 µM): 2 (score 2 relating to strong activity comprising more than 50% of the cells)
- Hoechst 33342 nuclear staining (fraction of apoptotic nuclei), score (HT 1080; HT 1080, 24h, 0.3 µM): 0
- Hoechst 33342 nuclear staining (fraction of apoptotic nuclei), score (HT 1080; HT 1080, 24h, 1 µM): 1 (1 relating to weak activity comprising less than 50% of the cells)
- Hoechst 33342 nuclear staining (fraction of apoptotic nuclei), score (HT 1080; HT 1080, 24h, 3 µM): 2 (score 2 relating to strong activity comprising more than 50% of the cells)
- Hoechst 33342 nuclear staining (fraction of apoptotic nuclei), score (HT 1080; HT 1080, 24h, 10 µM): 2 (score 2 relating to strong activity comprising more than 50% of the cells)
- Hoechst 33342 nuclear staining (fraction of apoptotic nuclei), score (HT 1080; HT 1080, 48h, 0.3 µM): 0
- Hoechst 33342 nuclear staining (fraction of apoptotic nuclei), score (HT 1080; HT 1080, 48h, 1 µM): 2 (score 2 relating to strong activity comprising more than 50% of the cells)
- Hoechst 33342 nuclear staining (fraction of apoptotic nuclei), score (HT 1080; HT 1080, 48h, 3 µM): 2 (score 2 relating to strong activity comprising more than 50% of the cells)
- Hoechst 33342 nuclear staining (fraction of apoptotic nuclei), score (HT 1080; HT 1080, 48h, 10 µM): 2 (score 2 relating to strong activity comprising more than 50% of the cells)
- Hoechst 33342 nuclear staining (HeLa; 24h, conc 0.3 (µM)): 0
- Hoechst 33342 nuclear staining (HeLa; 24h, conc 1 (µM)): 0
- Hoechst 33342 nuclear staining (HeLa; 24h, conc 3 (µM)): 0
- Hoechst 33342 nuclear staining (HeLa; 24h, conc 10 (µM)): 2 (score 2 relating to strong activity comprising more than 50% of the cells)
- Hoechst 33342 nuclear staining (HeLa; 48h, conc 0.3 (µM)): 0
- Hoechst 33342 nuclear staining (HeLa; 48h, conc 1 (µM)): 0
- Hoechst 33342 nuclear staining (HeLa; 48h, conc 3 (µM)): 2 (score 2 relating to strong activity comprising more than 50% of the cells)
- Hoechst 33342 nuclear staining (HeLa; 48h, conc 10 (µM)): 2 (score 2 relating to strong activity comprising more than 50% of the cells)
- Hoechst 33342 nuclear staining (KB; 24h, conc 0.3 (µM)): 0
- Hoechst 33342 nuclear staining (KB; 24h, conc 1 (µM)): 0
- Hoechst 33342 nuclear staining (KB; 24h, conc 3 (µM)): 2 (score 2 relating to strong activity comprising more than 50% of the cells)
- Hoechst 33342 nuclear staining (KB; 24h, conc 10 (µM)): 2 (score 2 relating to strong activity comprising more than 50% of the cells)
- Hoechst 33342 nuclear staining (KB; 48h, conc 0.3 (µM)): 0
- Hoechst 33342 nuclear staining (KB; 48h, conc 1 (µM)): 2 (score 2 relating to strong activity comprising more than 50% of the cells)
- Hoechst 33342 nuclear staining (KB; 48h, conc 3 (µM)): 2 (score 2 relating to strong activity comprising more than 50% of the cells)
- Hoechst 33342 nuclear staining (KB; 48h, conc 10 (µM)): 2 (score 2 relating to strong activity comprising more than 50% of the cells)
- Hoechst 33342 nuclear staining (Ramos; 24h, conc 0.3 (µM)): 0
- Hoechst 33342 nuclear staining (Ramos; 24h, conc 1 (µM)): 0
- Hoechst 33342 nuclear staining (Ramos; 24h, conc 3 (µM)): 0
- Hoechst 33342 nuclear staining (Ramos; 24h, conc 10 (µM)): 2 (score 2 relating to strong activity comprising more than 50% of the cells)
- Hoechst 33342 nuclear staining (Ramos; 48h, conc 0.3 (µM)): 0
- Hoechst 33342 nuclear staining (Ramos; 48h, conc 1 (µM)): 2 (score 2 relating to strong activity comprising more than 50% of the cells)
- Hoechst 33342 nuclear staining (Ramos; 48h, conc 3 (µM)): 2 (score 2 relating to strong activity comprising more than 50% of the cells)
- Hoechst 33342 nuclear staining (Ramos; 48h, conc 10 (µM)): 2 (score 2 relating to strong activity comprising more than 50% of the cells)

From patent EP1433789A1, “Pyrrolopyrazines and their use as selective apoptosis inducers” (Aponetics AG, priority 2002, dated 2004)
